Ki and IC50 data for seven molecules are collected here from patent US20250059182A1, “SOS1 INHIBITORS” (Mirati Therapeutics, Inc., priority 2021, published 2025).

For experiment [1], the target named is T1, recombinant human SOS1 polypeptide (amino acids 560-1049) (Homo sapiens, UniProt Q07889).
T1 construct: corresponding to amino acids 560-1049, expressed in E. Coli; made in house; host or cells: E. coli
T1 sequence (Q07889 560-1049): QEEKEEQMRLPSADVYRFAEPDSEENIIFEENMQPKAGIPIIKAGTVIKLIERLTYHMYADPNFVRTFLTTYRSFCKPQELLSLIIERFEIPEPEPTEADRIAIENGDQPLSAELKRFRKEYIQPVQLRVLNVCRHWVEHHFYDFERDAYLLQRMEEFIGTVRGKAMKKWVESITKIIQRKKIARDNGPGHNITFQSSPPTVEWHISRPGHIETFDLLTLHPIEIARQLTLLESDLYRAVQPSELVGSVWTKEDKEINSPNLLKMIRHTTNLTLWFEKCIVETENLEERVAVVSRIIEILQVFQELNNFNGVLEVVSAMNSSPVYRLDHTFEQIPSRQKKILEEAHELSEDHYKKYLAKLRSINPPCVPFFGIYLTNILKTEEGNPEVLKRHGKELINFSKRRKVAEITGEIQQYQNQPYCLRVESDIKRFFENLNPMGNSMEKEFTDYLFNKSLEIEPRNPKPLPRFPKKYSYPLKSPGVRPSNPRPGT
Kind of experiment: HTRF displacement assay: inhibition of labeled tracer binding to SOS1. The conditions noted are these: Table A, Morrison equation for competitive binding. For orientation: Time-resolved FRET reads energy transfer from a long-lived donor to a nearby acceptor.

The subject of the next experiment is pERK in MKN1 cells. Put plainly: pERK inhibition, In-Cell Western (LI-COR Odyssey), MKN1 cells. Type of experiment: cell-based. The conditions noted are these: Homo sapiens, MKN-1, Table B; MKN1 or H358 cells (table does not say which); 0.5-1 hour incubation; read-out: IC50 (nM), pERK inhibition. The gist of the method:
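IC50 was fitted from % pERK inhibition, calculated as the GAPDH-normalised pERK signal of each well divided by the vehicle mean. Signal was imaged at 700 and 800 nm after fixation, methanol permeabilisation and dual antibody staining. Before fixation, MKN1 cells had received compound for about 0.5–1 h at 37 °C, top concentration 10 µM, nine 3-fold dilutions.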

Regarding `Cc1nnc(N[C@H](C)c2cccc(C(F)(F)F)c2F)c2cc(N3C[C@H]4C[C@@H]3CO4)c(C#N)cc12` [Example 6-20, 7-((1R,4R)-2-oxa-5-azabicyclo[2.2.1]heptan-5-yl)-1-(((R)-1-(2-fluoro-3-(trifluoromethyl)phenyl)ethyl)amino)-4-methylphthalazine-6-carbonitrile], the Ki (in general, the dissociation constant of the complex between target and ligand, obtained from inhibition or displacement) in experiment [1] is 1.4 nM. Further, in the experiment on pERK in MKN1 cells, the IC50 (in general, the concentration needed to halve the response being measured) was 218 nM.
For `Cc1nnc(N[C@H](C)c2cc(N)cc(C(F)(F)F)c2F)c2cc(N3CC(C)(O)C3)ncc12` [Example 1-93, (R)-1-(1-((1-(5-amino-2-fluoro-3-(trifluoromethyl)phenyl)ethyl)amino)-4-methylpyrido[3,4-d]pyridazin-7-yl)-3-methylazetidin-3-ol] the same measures were 0.361 nM and 50.5 nM.
For the molecule `Cc1c(C#N)cccc1[C@@H](C)Nc1nnc(C)c2cnc(N3CCN(C(=O)[C@@H]4CCCCN4C)CC3)cc12` [Example 2-7, 2-methyl-3-((R)-1-((4-methyl-7-(4-((S)-1-methylpiperidine-2-carbonyl)piperazin-1-yl)pyrido[3,4-d]pyridazin-1-yl)amino)ethyl)benzonitrile], the Ki in experiment [1] turned out to be 0.545 nM. Further, the IC50 in the experiment with pERK in MKN1 cells was 139 nM.
Regarding `Cc1c(C#N)cccc1[C@@H](C)Nc1nnc(C)c2cc(F)c(N3C[C@@H]4[C@H]3CCN4C)cc12` (single isomer, unassigned) [Example 9-2], the Ki in experiment [1] came to 2 nM. In addition, the IC50 in the experiment on pERK in MKN1 cells is 30 nM.
`Cc1c(C#N)cccc1[C@@H](C)Nc1nnc(C)c2cnc(N3C[C@@H]4C[C@H]3CN4C)cc12` [Example 1-34, 2-methyl-3-((R)-1-((4-methyl-7-((1S,4S)-5-methyl-2,5-diazabicyclo[2.2.1]heptan-2-yl)pyrido[3,4-d]pyridazin-1-yl)amino)ethyl)benzonitrile]: in experiment [1], the Ki was 2.25 nM. The IC50 in the experiment on pERK in MKN1 cells was 49.2 nM.
In the case of `Cc1c(C#N)cccc1[C@@H](C)Nc1nnc(C)c2cnc(N(C)C[C@H]3CCCN3)cc12` [Example 1-56, 2-methyl-3-((R)-1-((4-methyl-7-(methyl(((R)-pyrrolidin-2-yl)methyl)amino)pyrido[3,4-d]pyridazin-1-yl)amino)ethyl)benzonitrile], the Ki in experiment [1] was 2.15 nM. For the same molecule, in the experiment on pERK in MKN1 cells, the IC50 amounted to 246 nM.
Take `Cc1nnc(N[C@H](C)c2ccc(C#N)cc2F)c2cc(N3CCN4CCOC[C@@H]4C3)ncc12` [Example 1-97, 3-fluoro-4-((R)-1-((7-((S)-hexahydropyrazino[2,1-c][1,4]oxazin-8(1H)-yl)-4-methylpyrido[3,4-d]pyridazin-1-yl)amino)ethyl)benzonitrile]: the Ki in experiment [1] turned out to be 17.7 nM. Also, in the experiment on pERK in MKN1 cells, the IC50 is 358 nM.
